Test results from US6673937B2, “Syntheses and methods of use of new antimitotic agents” (The University of Pittsburgh, priority 2000, dated 2004).
Where two headings read alike, the source gives them in different places.

Columns and labels:
MCF-7 cells = test: Antiproliferative assay, MCF-7 cells; type: cell-based; settings: read-out: MCF-7 50% cell growth inhibition
Method: Two widely used human breast cancer cell lines were evaluated for sensitivity to the cytotoxic effects of the naphthoquinone spiroketals. MCF-7 cells were originally derived from an adenocarcinoma of the breast and retain several characteristics of differentiated mamnmary epithelium including the ability to process estradiol via cytoplasmic estrogen receptors. MCF-7 cells express the tumor suppressor gene product p53, which is required for the programmed cell death or apoptosis caused by many agents. (Foster, B. A.; Coffey, H. A.; Morin, M. J.; Rastinejad, F. Science 1999, 286, 2507).
The proliferation of MCF-7, MDA-MB-231 and SV40 transformed mouse embryonic fibroblasts was measured by a previously described colorimetric assay (Wipf P, Jung J-K, Rodriguez S, Lazo JS Synthesis and biological evaluation of Deoxypreussomerin A and Palmarumycin CP 1 and related naphthoquinone spiroketals. Tetrahedron 57:283-296, 2001 and Vogt A, Rice RL, Settineri CE, Yokokawa F, Yokokawa S, Wipf P and Lazo JS (1998) Disruption of insulin-like growth factor-I signaling and down-regulation of Cdc2 by SC-ααδ9, a novel small molecule antisignaling agent identified in a targeted array library. J Pharmacol Exptl Therap 287:806-813.). Briefly, the inventors seeded 4,000-6,000 cells per well in microtiter plates. Cells were allowed to attach overnight and treated with vehicle or compounds for 72 h, after which the medium was replaced with serum free medium containing 0.1% 3-[4,5-dimethylthiazol-2-yl]-2,5-diphenyl tetrazolium bromide. Plates were incubated for 3 hours in the dark and total cell number was determined by spectrophotometrically at 540 nm as previously described (Vogt A, Rice RL, Settineri CE, Yokokawa F, Yokokawa S, Wipf P and Lazo JS (1998) Disruption of insulin-like growth factor-1 signaling and down-regulation of Cdc2 by SC-ααδ9, a novel small molecule antisignaling agent identified in a targeted array library. J Pharmacol Exptl Therap 287:806-813.). […] Cells were maintained in RPMI 1640 medium containing 10% fetal bovine serum and the paclitaxel-resistant cells also contained 17 nM paclitaxel and 10 μM verapamil. Cells were plated (2,000/well) in 96-well plates and allowed to attach and grow for 72 hours (paclitaxel and verapamil were removed from resistant cell medium two weeks prior to this plating). They were then treated with 0.5% DMSO vehicle control or 0.08-10 μM compound. The number of cells was determined spectrophotometrically at 490 nm minus absorbance at 630 nm after exposure to 3-(4,5-dimethylthiazol-2-yl)-5-(3-carboxymethoxyphenyl)-2-(4-sulfophenyl)-2H-tetrazolium and N-methyldibenzopyurazine methyl sulfate. […]

TrxR = molecular target: T1, TrxR (Homo sapiens, UniProt Q16881); test: Thioredoxin reductase (TrxR) DTNB reduction assay; type: biochemical; settings: calculated from 5 concentrations (0.1 to 50 μM)
T1 construct: Thioredoxin reductase was purified from human placenta as previously described; from tissue; host or cells: human placenta
T1 sequence (Q16881 1-499 isoform Q16881-5): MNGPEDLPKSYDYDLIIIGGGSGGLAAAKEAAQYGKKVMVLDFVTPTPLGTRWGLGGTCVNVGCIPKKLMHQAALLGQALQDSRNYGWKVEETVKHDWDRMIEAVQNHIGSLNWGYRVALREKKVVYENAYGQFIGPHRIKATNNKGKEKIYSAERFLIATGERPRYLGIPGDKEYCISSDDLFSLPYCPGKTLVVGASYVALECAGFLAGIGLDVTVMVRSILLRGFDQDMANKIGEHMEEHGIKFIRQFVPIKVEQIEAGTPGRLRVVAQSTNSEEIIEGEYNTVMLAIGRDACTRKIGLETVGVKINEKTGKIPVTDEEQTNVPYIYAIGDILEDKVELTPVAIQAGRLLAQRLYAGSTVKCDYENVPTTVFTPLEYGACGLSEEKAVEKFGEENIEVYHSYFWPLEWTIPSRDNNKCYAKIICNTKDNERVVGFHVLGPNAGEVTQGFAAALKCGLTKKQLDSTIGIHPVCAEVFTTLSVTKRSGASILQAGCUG
Method: Thioredoxin reductase was purified from human placenta as previously described (Oblong, J.E.; Gasdaska, P.Y.; Sherrill, K.; Powis,G. Biochemistry 1993, 32, 7271) and recombinant human Trx-1 was prepared as previously described (Gasdaska, P.Y.; Oblong, J.E.; Cotgreave, I.A.; Powis,G. Biochem.Biophys.Acta 1994 ,1218 ,292). TrxR and Trx-1/TrxR activities were measured spectrophotometrically using previously published microtiter plate colorimetric assays, based on the increase in absorbance at 405 nm which occurs as dithionitrobenzoic acid (DTNB) is reduced by the enzyme-mediated transfer of reducing equivalents from NADPH (Gasdaska et al., Biochem.Biophys.Acta 1994 ,1218,292). Trx-1/TrxR-dependent insulin reducing activity was measured in an incubation with a final volume of 60 μL containing 100 mM HEPES buffer, pH 7.2,5 mM EDTA (HE buffer),1 mM NADPH, […],0.8 μM Trx-1 and 2.5 mg/mL bovine insulin. Incubations were for 30 min at 37 ° C. in flat-bottom 96-well microtiter plates. The reaction was stopped by the addition of 100 μL of 6 M guanidine-HC1, 50 mM Tris, pH 8.0, and 10 mM DTNB, and the absorbance measured to 405 nm. TrxR activity was measured in a final incubation volume of 60 μL containing HE buffer, 10 mM DTNB, 1.0 μM TrxR and 1 mM NADPH. Compounds were diluted in HE buffer and added to the wells as 20 μL aliquots, and TrxR was then added,also as 20 μL aliquots in HE buffer. To start the reaction NADPH and DTNB were added as a 20 μL aliquot in HE buffer and the plate was moved to the plate reader which had been preheated to 37 ° C. The optical density at 405 nm was measured every 10 s and initial reaction rates were measured.

SMILES | IC50 (MCF-7 cells; Homo sapiens, MCF7, 72 h) [µM] | IC50 (TrxR) [µM] | IC50 (MCF-7 cells; 72 hours) [µM]
O=C1C=CC2(Oc3cccc4cccc(c34)O2)c2cccc(OCc3ccoc3)c21 [SR-10, 8-(furan-3-ylmethoxy)-1-oxo-1,4-dihydronaphthalene-4-spiro-2′-naphto [1′,8′-de][1′,3′] dioxin] | 2 | > 50 | 
COc1cccc2c1C(=O)C=CC21OCCCO1 [TH-223] |  | > 50 | 4.4
O=C1C=CC2(Oc3cccc4cccc(c34)O2)c2cccc(OCc3ccco3)c21 [SR-7, 8-(furan-2-ylmethoxy)-1-oxo-1,4-dihydronaphthalene-4-spiro-2′-naphto [1″,8″-de][1′,3′] dioxin] | 1 to 2 |  | 1.1
O=C1C=CC2(Oc3cccc4cccc(c34)O2)c2cccc(OCc3cccnc3)c21 [SR-12, 8-(pyridin-3-ylmethoxy)-1-oxo-1,4-dihydronaphthalene-4-spiro-2′-naphto [1″,8″-de][1′,3′] dioxin] | 1.5 | > 50 | 
CC(C)=CCC/C(C)=C/COc1cccc2c1C(=O)C=CC21Oc2cccc3cccc(c23)O1 [SR-9, (E,E)-8-(3,7-diemthyl-octa-2,6-dienyloxy)-1-oxo-1,4-dihydronaphthalene-4-spiro-2′-naphtol [1″,8″-de][1′,3′] dioxin] | 4.6 |  | 
O=C1C=CC2(OCCO2)c2cccc(O)c21 [TH-169] | 4.2 | 8.8 | 
C=CCOc1cccc2c1C(=O)C=CC21Oc2cccc3cccc(c23)O1 [SR-14, 8-allyloxy-1-oxo-1,4-dihydronaphthalene-4-spiro-2′-naphto [1″,8″-de][1′,3′] dioxin] | 2 | > 50 | 
COc1cccc(COc2cccc3c2C(=O)C=CC32Oc3cccc4cccc(c34)O2)c1 [SR-5, 8-(3-methoxy-benzyloxy)-1-oxo-1,4-dihydronaphthalene-4-spiro-2′-naphto [1″,8″-de][1′,3′] dioxin] | 2.3 |  | 
O=C1C=CC2(Oc3cccc4cccc(c34)O2)c2cccc(OCc3ccncc3)c21 [SR-13, 8-(pyridin-4-ylmethoxy)-1-oxo-1,4-dihydronaphthalene-4-spiro-2′-naphtol [1″,8″-de][1′,3′] dioxin] | 8 | > 50 | 
O=C1C=CC2(Oc3cccc4cccc(c34)O2)c2cccc(OCCc3ccccc3)c21 [SR-6, 8-(2-phenyl-ethoxy)-1-oxo-1,4-dihydronaphthalene-4-spiro-2′-naphto [1″,8″-de][1′,3′] dioxin] | 3.9 |  | 
O=C1C=CC2(Oc3cccc4cccc(c34)O2)c2cccc(OCc3ccccn3)c21 [SR-11, 8-(pyridin-2-ylmethoxy)-1-oxo-1,4-dihydronaphthalene-4-spiro-2′-naphto [1″,8″-de][1′,3′] dioxin] | 2 | > 50 | 
C/C=C/COc1cccc2c1C(=O)C=CC21Oc2cccc3cccc(c23)O1 [SR-2, (E)-8-(but-2-enyloxy)-1-oxo-1,4-dihydronaphthalene-4-spiro-2′-naphto [1″,8″-de][1′,3′]dioxin] | 1.3 |  | 
O=C1C=CC2(Oc3cccc4cccc(c34)O2)c2cccc(OC/C=C/c3ccccc3)c21 [SR-1, (E)-8-(3-phenyl-allyloxy)-1-oxo-1,4-dihydronaphthalene-4-spiro-2′-naphto[1″, 8″-de] [1′,3′] dioxin] | 7.9 |  | 
O=C1C=CC2(Oc3cccc4cccc(c34)O2)c2cccc(O)c21 [palmarumycin CP1, 8-hydroxy-1-oxo-1,4-dihydronaphthalene-4-spiro-2′-naphtho[1″,8″-de] [1′,3′] dioxin, reference compound] | 1 to 2 | 12 | 1
CCCCCCOc1cccc2c1C(=O)C=CC21Oc2cccc3cccc(c23)O1 [SR-3, 8-hexyloxy-1-oxo-1,4-dihydronaphthalene-4-spiro-2′-naphto [1″,8″-de] [1′,3′] dioxin] | 13.4 |  | 
COc1ccc(COc2cccc3c2C(=O)C=CC32Oc3cccc4cccc(c34)O2)cc1 [TH-39, 8-(4-methoxy-benzyloxy)-1-oxo-1,4-dihydronaphthalene4-spiro-2-naphto [1,8-de][1, 3]dioxin] | 0.7 | > 50 | 
